Results from ChEMBL document CHEMBL4706618, “Discovery of lysosome-targeted covalent anticancer agents based on isosteviol skeleton” (Eur J Med Chem, 2021).

Assay: GSH reactivity in pH 7.4 sodium phosphate deuterium oxide buffer assessed as half life in presence of glutathione measured up to 6 hrs by 1H NMR analysis
Assay type: ADME
Conditions: sodium phosphate deuterium oxide buffer with glutathione

Structure (SMILES): C=C1C(=O)C=C[C@]2(C)[C@@H]1CC[C@@]13C/C(=N\OC)[C@@](C)(CC[C@H]12)C3
- half-life: 30 min
